For 25 compounds, MIC results are on record in patent publication US9163020B2, “Azaindole compounds, synthesis thereof, and methods of using the same” (Global Alliance for TB Drug Development, priority 2013, dated 2015).

≈ marks a conversion by molar mass, not a printed value.

The experiment has as its system Mycobacterium tuberculosis (Mtb) H37Rv ATCC 27294. Put plainly: microbe, parasite or virus in culture. Conditions: Mycobacterium tuberculosis, Table 1; read-out: Mtb MIC. The format is cell-based.
For the compound `CC(c1c(F)cccc1F)n1cc(C(=O)NCCF)c2ncccc21` (stereo not shown) [Compound 1, 1-(1-(2,6-difluorophenyl)ethyl)-N-(2-fluoroethyl)-1H-pyrrolo[3,2-b]pyridine-3-carboxamide], the MIC came out at 12.5 µM (≈ 4.34 µg/mL).
The result for `COc1ccc(F)cc1Cn1cc(C(=O)NCC2CC2)c2nccc(C)c21` [Compound 2, N-(Cyclopropylmethyl)-1-(5-fluoro-2-methoxybenzyl)-7-methyl-1H-pyrrolo[3,2-b]pyridine-3-carboxamide] reads 6.25 µM (≈ 2.3 µg/mL); that for `COc1ccc(F)c(F)c1Cn1cc(C(=O)NCCF)c2ncccc21` [Compound 5, 1-(2,3-difluoro-6-methoxybenzyl)-N-(2-fluoroethyl)-1H-pyrrolo[3,2-b]pyridine-3-carboxamide], less than 0.66 µM.
Then `COCCNC(=O)c1cn(Cc2cc(F)cnc2OC)c2cccnc12` [Compound 6], with 1.3 µM (≈ 0.466 µg/mL); and `COCCNC(=O)c1cn(Cc2ncnc(OC)c2C)c2cccnc12` [Compound 7, 1-((6-methoxy-5-methylpyrimidin-4-yl)methyl)-N-(2-methyl)-1H-pyrrolo[3,2-b]pyridine-3-carboxamide], with less than 1.33 µM.
The result for `COc1ncnc(Cn2cc(C(=O)NCCO)c3ncccc32)c1C` [Compound 9, N-(2-hydroxyethyl)-1-((6-methoxy-5-methylpyrimidin-4-yl)methyl)-1H-pyrrolo[3,2-b]pyridine-3-carboxamide] reads 13.9 µM (≈ 4.75 µg/mL).
Turning to `COc1ncnc(Cn2cc(C(=O)NCC3CC3)c3ncc(C)cc32)c1C` [Compound 10, N-(cyclopropylmethyl)-1-((6-methoxy-5-methylpyrimidin-4-yl)methyl)-6-methyl-1H-pyrrolo[3,2-b]pyridine-3-carboxamide], the MIC came to 1.56 µM (≈ 0.57 µg/mL).
The result for `COCCNC(=O)c1cn(Cc2ncnc(OC)c2C)c2cc(C)cnc12` [Compound 11, 1-((6-methoxy-5-methylpyrimidin-4-yl)methyl)-N-(2-methoxyethyl)-6-methyl-1H-pyrrolo[3,2-b]pyridine-3-carboxamide] reads 0.781 µM (≈ 0.289 µg/mL); that for `Cc1c(OCC(F)(F)F)ccnc1Cn1cc(C(=O)NCCF)c2ncccc21` [Compound 12, N-(2-fluoroethyl)-1-((3-methyl-4-(2,2,2-trifluoroethoxy)pyridin-2-yl)methyl)-1H-pyrrolo[3,2-b]pyridine-3-carboxamide], 6.25 µM (≈ 2.56 µg/mL); that for `COc1ncc(C(F)(F)F)cc1Cn1cc(C(=O)NCCF)c2ncccc21` [Compound 13, N-(2-fluoroethyl)-1-((2-methoxy-5-(trifluoromethyl)pyridin-3-yl)methyl)-1H-pyrrolo[3,2-b]pyridine-3-carboxamide], less than 0.53 µM.
The result for `COc1ncc(C#N)cc1Cn1cc(C(=O)NCCF)c2ncccc21` [Compound 14, 1-((5-cyano-2-methoxypyridin-3-yl)methyl)-N-(2-fluoroethyl)-1H-pyrrolo[3,2-b]pyridine-3-carboxamide] reads 3.12 µM (≈ 1.1 µg/mL); that for `COc1ncc(F)cc1Cn1cc(C(=O)NCCF)c2ncc(C)cc21` [Compound 15, 1-((5-fluoro-2-methoxypyridin-3-yl)methyl)-N-(2-fluoroethyl)-6-methyl-1H-pyrrolo[3,2-b]pyridine-3-carboxamide], 1.56 µM (≈ 0.562 µg/mL).
The result for `COc1ncnc(Cn2cc(C(=O)NC[C@H](C)F)c3ncc(C)cc32)c1C` [Compound 16, (S)—N-(2-fluoropropyl)-1-((6-methoxy-5-methylpyrimidin-4-yl)methyl)-6-methyl-1H-pyrrolo[3,2-b]pyridine-3-carboxamide] reads 0.156 µM (≈ 0.0579 µg/mL).
Turning to `COc1nc(C)c(F)cc1Cn1cc(C(=O)NCCF)c2ncccc21` [Compound 18, 1-((5-fluoro-2-methoxy-6-methylpyridin-3-yl)methyl)-N-(2-fluoroethyl)-1H-pyrrolo[3,2-b]pyridine-3-carboxamide], the MIC was 0.781 µM (≈ 0.281 µg/mL).
The result for `COc1ncnc(Cn2cc(C(=O)NCCF)c3ncc(F)cc32)c1C` [Compound 19, 6-fluoro-N-(2-fluoroethyl)-1-((6-methoxy-5-methylpyrimidin-4-yl)methyl)-1H-pyrrolo[3,2-b]pyridine-3-carboxamide] reads 6.25 µM (≈ 2.26 µg/mL); that for `COc1ncnc(Cn2cc(C(=O)NCCF)c3ncc(Br)cc32)c1C` [Compound 20, 6-bromo-N-(2-fluoroethyl)-1-((6-methoxy-5-methylpyrimidin-4-yl)methyl)-1H-pyrrolo[3,2-b]pyridine-3-carboxamide], 0.781 µM (≈ 0.33 µg/mL).
The result for `Cc1cnc2c(C(=O)NCCF)cn(Cc3nccc(OCC(F)(F)F)c3C)c2c1` [Compound 21, N-(2-fluoroethyl)-6-methyl-1-((3-methyl-4-(2,2,2-trifluoroethoxy)pyridin-2-yl)methyl)-1H-pyrrolo[3,2-b]pyridine-3-carboxamide] reads 1.56 µM (≈ 0.662 µg/mL); that for `COc1ncc(C(F)(F)F)cc1Cn1cc(C(=O)NC[C@H](C)F)c2ncc(C)cc21` [Compound 22, (S)—N-(2-fluoropropyl)-1-((2-methoxy-5-(trifluoromethyl)pyridin-3-yl)methyl)-6-methyl-1H-pyrrolo[3,2-b]pyridine-3-carboxamide], less than 0.391 µM.
For `COc1ncnc(Cn2cc(C(=O)NCCOC(F)(F)F)c3ncccc32)c1C` [Compound 23, 1-((6-methoxy-5-methylpyrimidin-4-yl)methyl)-N-(2-(trifluoromethoxy)ethyl)-1H-pyrrolo[3,2-b]pyridine-3-carboxamide], the MIC came to 3.12 µM (≈ 1.28 µg/mL).
Turning to `COc1ncc(F)cc1Cn1cc(C(=O)NC[C@H](C)F)c2ncc(C)cc21` [Compound 24, (S)-1-((5-fluoro-2-methoxypyridin-3-yl)methyl)-N-(2-fluoropropyl)-6-methyl-1H-pyrrolo[3,2-b]pyridine-3-carboxamide], the MIC was less than 0.391 µM.
Then `COc1ncnc(Cn2cc(NC(=O)CC3CC3)c3ncccc32)c1C` [Compound 25, 2-cyclopropyl-N-(1-((6-methoxy-5-methylpyrimidin-4-yl)methyl)-1H-pyrrolo[3,2-b]pyridin-3-yl)acetamide], with 25 µM (≈ 8.79 µg/mL); and `Cc1cnc2c(C(=O)NCCF)cn(Cc3cc(F)c(C)nc3C)c2c1` [Compound 26, 1-((5-fluoro-2,6-dimethylpyridin-3-yl)methyl)-N-(2-fluoroethyl)-6-methyl-1H-pyrrolo[3,2-b]pyridine-3-carboxamide], with 3.12 µM (≈ 1.12 µg/mL).
Then `Cc1cnc2c(C(=O)NCCO)cn(Cc3nccc(OCC(F)(F)F)c3C)c2c1` [Compound 27, N-(2-hydroxyethyl)-6-methyl-1-((3-methyl-4-(2,2,2-trifluoroethoxy)pyridin-2-yl)methyl)-1H-pyrrolo[3,2-b]pyridine-3-carboxamide], with 3.12 µM (≈ 1.32 µg/mL).
The result for `COc1ncnc(Cn2cc(C(=O)NC[C@@H](C)O)c3ncc(C)cc32)c1C` [Compound 28, (R)—N-(2-hydroxypropyl)-1-((6-methoxy-5-methylpyrimidin-4-yl)methyl)-6-methyl-1H-pyrrolo[3,2-b]pyridine-3-carboxamide] reads 6.25 µM (≈ 2.31 µg/mL); that for `Cc1cnc2c(C(=O)NCCF)cn(Cc3ncnc(N(C)C)c3C)c2c1` [Compound 29, 1-((6-(dimethylamino)-5-methylpyrimidin-4-yl)methyl)-N-(2-fluoroethyl)-6-methyl-1H-pyrrolo[3,2-b]pyridine-3-carboxamide], 1.56 µM (≈ 0.578 µg/mL).
